A word on the EC50: it is the midpoint of the concentration-response curve. Lower therefore signals higher potency in that assay. Usually Ki stands for the dissociation constant of the complex between target and ligand, obtained from inhibition or displacement. Low values mean tighter binding, high ones weaker binding.

The values that follow come from BindingDB's records for doi:10.1021/jm801327q (Cnrs, 2009).

Test [1] deals with 5-hydroxytryptamine receptor 4 (Homo sapiens, UniProt Q13639). Kind of test: Radioligand Binding Assay (Ki) and cAMP Accumulation Assay (EC50). Particulars: pH 7.4; 25 °C. As for the experimental part: Nonspecific binding was determined with 10 uM GR113808. After incubation, the reaction was terminated by filtration through Whatman GF/B. Radioactivity was measured using a Beckman model LS6500C liquid scintillation counter. Binding data are expressed as a percentage of displacement for the screening of the library compounds. For selected compounds, Ki were analyzed by computer-assisted nonlinear regression analysis (Prism, Graphpad Software, San Diego, CA). EC50 values correspond to the concentration of agonists required to obtain half maximal stimulation of adenylyl cyclase. […] The data are the results of two or three independent determinations performed in triplicate.
Chain of 5-hydroxytryptamine receptor 4 (Q13639 whole entry): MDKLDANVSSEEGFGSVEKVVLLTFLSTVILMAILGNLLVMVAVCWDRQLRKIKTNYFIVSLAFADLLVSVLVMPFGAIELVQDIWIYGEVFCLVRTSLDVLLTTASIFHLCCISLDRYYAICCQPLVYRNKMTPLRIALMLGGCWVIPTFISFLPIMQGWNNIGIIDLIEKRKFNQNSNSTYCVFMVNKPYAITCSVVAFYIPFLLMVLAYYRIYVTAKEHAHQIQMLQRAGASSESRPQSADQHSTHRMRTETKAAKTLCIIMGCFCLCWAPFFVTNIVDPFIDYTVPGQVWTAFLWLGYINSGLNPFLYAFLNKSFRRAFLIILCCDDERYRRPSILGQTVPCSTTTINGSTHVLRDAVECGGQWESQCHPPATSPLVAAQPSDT

Test [2] addresses Amyloid-beta precursor protein (Homo sapiens) (UniProt P05067). Description: EC/IC50 was the effective concentration of agonist inhibiting the formation of A-beta fibrils to 50% of the control value. Three independent measurements were made for all cases.

Chain of Amyloid-beta precursor protein (Homo sapiens) (P05067 whole entry, looked up): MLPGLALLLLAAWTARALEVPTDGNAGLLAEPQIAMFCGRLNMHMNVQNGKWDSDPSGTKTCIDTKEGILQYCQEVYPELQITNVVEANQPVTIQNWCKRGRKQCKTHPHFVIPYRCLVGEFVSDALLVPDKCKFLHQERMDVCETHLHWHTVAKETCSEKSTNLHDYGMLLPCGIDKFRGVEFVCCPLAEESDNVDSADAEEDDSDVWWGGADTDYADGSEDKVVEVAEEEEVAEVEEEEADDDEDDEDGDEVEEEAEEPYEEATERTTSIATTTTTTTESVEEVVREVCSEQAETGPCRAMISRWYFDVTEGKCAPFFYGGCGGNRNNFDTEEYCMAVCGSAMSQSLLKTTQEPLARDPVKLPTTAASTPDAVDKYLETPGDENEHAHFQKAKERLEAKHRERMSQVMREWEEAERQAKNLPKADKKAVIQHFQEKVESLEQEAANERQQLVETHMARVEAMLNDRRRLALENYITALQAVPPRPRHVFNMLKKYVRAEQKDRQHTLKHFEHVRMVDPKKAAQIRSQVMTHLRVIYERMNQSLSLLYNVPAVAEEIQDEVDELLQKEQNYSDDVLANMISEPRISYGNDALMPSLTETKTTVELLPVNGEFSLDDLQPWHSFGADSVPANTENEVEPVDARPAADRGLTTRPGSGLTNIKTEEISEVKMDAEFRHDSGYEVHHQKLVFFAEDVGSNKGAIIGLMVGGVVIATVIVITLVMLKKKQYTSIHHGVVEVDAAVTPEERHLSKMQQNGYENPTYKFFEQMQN

In test [1], `COc1cc(N)c(Cl)cc1C(=O)OCCN1CCC(NC(=O)CCCCCN2C(=O)c3cccc4c(N)ccc(c34)C2=O)CC1` [ML10302 scaffold, 9{a;y}] registered a 50% effective concentration (EC50) of 4 nM and a Ki of 111 nM.
Take `COc1cc(N)c(Cl)cc1C(=O)OCCN1CCC(NC(=O)CCCNCCCc2ccc(CCCNCCCC(=O)NC3CCN(CCOC(=O)c4cc(Cl)c(N)cc4OC)CC3)cc2)CC1` [ML10302 scaffold, 14]: the EC50 in test [2] was determined as 9000 nM.
